Measurements reported in patent US7575882B2, “Compositions and methods for identifying modulators of TRPV2” (Janssen Pharmaceutica N. V., priority 2005, dated 2009).
Where two headings read alike, the source gives them in different places.

Experiments:
rat TRPV2 = biological target: T1, rat TRPV2 (Rattus norvegicus, UniProt Q9WUD2, A713V/L151P/T158I); assay: FLIPR calcium mobilization assay in rat TRPV2-expressing HEK293 cells; assay type: cell-based
T1 construct: A cDNA fragment encoding the full-length rat TRPV2 was subcloned into pCI-neo; expressed in transfected cells
T1 sequence (Q9WUD2 1-761 L151P/T158I/A713V): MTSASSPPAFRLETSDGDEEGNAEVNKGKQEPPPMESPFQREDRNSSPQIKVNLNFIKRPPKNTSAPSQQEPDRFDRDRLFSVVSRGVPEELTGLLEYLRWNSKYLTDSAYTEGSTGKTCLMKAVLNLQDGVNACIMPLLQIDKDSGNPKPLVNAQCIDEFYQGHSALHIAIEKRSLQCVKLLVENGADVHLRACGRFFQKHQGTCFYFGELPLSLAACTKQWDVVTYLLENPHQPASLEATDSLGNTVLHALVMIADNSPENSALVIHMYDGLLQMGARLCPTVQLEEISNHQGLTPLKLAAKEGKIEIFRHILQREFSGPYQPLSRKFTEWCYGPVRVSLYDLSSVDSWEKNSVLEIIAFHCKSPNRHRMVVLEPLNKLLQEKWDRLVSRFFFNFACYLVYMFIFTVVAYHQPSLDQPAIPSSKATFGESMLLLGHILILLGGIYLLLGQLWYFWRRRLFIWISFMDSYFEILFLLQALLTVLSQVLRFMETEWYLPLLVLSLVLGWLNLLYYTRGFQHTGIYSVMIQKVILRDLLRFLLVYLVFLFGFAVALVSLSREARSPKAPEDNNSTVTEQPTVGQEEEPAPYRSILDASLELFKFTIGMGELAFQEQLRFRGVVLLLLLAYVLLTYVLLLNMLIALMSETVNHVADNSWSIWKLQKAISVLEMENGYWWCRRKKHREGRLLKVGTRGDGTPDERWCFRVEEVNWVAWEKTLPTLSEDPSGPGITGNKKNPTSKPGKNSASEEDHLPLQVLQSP
Procedure: A cDNA fragment encoding the full-length rat TRPV2 was subcloned into pCI-neo (Promega, Madison, Wis.) mammalian expression vector. The expression construct was then transfected into HEK293 cells with FuGene6 transfection reagent (Roche, Indianapolis, Ind.) according to the vendor's protocol. Stable cell lines were selected by growth in the presence of 400 μg/ml G418. Single G418 resistant clones were isolated and purified.
The rat TRPV2-expressing HEK293 cells were seeded in a 384-well plate at a concentration of 5×10^3 cells/well and incubated overnight at 37° C. The following day, the cells were loaded with buffer and calcium dye 3 (Molecular Devices, Sunnyvale, Calif.) in a final volume of 50 μl and incubated for 30 minutes at 37° C./5% CO2 followed by 30 additional minutes at room temperature. The fluorescence intensity was measured by a fluorescent plate reader (FLIPR) before, during and after the addition of test compounds.
All data was normalized to that observed for 100 μM Δ^9-THC.

[1] = system: deletion mutants of rat TRPV2; assay: Calcium mobilization in HEK293 cells expressing rat TRPV2 deletion mutants; assay type: cell-based; conditions: mutants lacking N-terminal 20, 32/33, 65/66 or C-terminal 11, 23, 32 residues
Description: DNA molecules encoding the deletion mutants were amplified by PCR using the rat TRPV2 cDNA as the template. For amino-terminal deletions, a series N-terminal forward primers encoding an initiating methionine in frame with sequences matching adjacent regions of the desired start at residues G21 (mutant N20, SEQ ID NO:11), P33 (N32, SEQ ID NO:12), A66 (N65, SEQ ID NO:13) and V84 (N83, SEQ ID NO:14) paired with a C-terminal reverse primer were used for PCR amplification. While for carboxyl-terminal deletions, a forward N-terminal primer paired with a series C-terminal reverse primers ending at residues R706 (C51, SEQ ID NO:7), P729 (C32, SEQ ID NO:8), P738 (C23, SEQ ID NO:9) and E750 (C11, SEQ ID NO:10) with an in-frame stop codon at the terminal end of the open reading frame were used for amplification. After PCR amplification and purification, the DNA molecules encoding the deletion mutants were subcloned into the pCI-neo mammalian expression vector and the constructs were confirmed by DNA sequencing. […]
The deletion mutant constructs were then transfected into HEK293 cells using Fugene 6 reagent (Roche) as per the manufacturer's instructions. […] Calcium mobilization was triggered using Δ^9-THC or 2-APB or elevated temperature buffer and measured using either FLIPR or FLEX STATION instruments.

[2] = biological target: T2, rat and human TRPV2 chimera RHR (Rattus norvegicus, UniProt Q9WUD2, A398L/D418K/D570G/D595E/E431N/E493A/E569T/E577V/E585D/F395L/F429V/I422A/INS586GN/K566E/L151P/L436T/L450V/L461V/L478F/L485V/L503S/M468I/M492L/N571P/P420Q/P587G/P589Q/Q419K/R460H/R490C/R560Q/R563W/R617H/S416T/S424H/S425L/S504A/S564R/S573A/S592G/T428E/T494I/T576S/T580M/V402I/V409A/V543I/V575E/V581E/V621M/V635I/Y400N); assay: Calcium mobilization in HEK293 cells expressing TRPV2 chimera RHR; assay type: cell-based; conditions: transient expression in HEK293
T2 construct: expressed in transfected cells; host or cells: HEK293, transient, pCI-neo
Procedure: The deletion mutant constructs were then transfected into HEK293 cells using Fugene 6 reagent (Roche) as per the manufacturer's instructions. At 24 hours post-transfection, the cells were harvested and replated in fresh DMEM medium supplemented with 10% fetal bovine serum, 100 units/ml penicillin, and 100 μg/ml streptomycin. The cells were distributed onto poly-D-Lysine coated 96-or 384-well plates at a density of approximately 40,000 and 10,000 cells per well, respectively. At approximately 48 hours post-transfection, the medium was removed from the assay plate and replaced with Calcium 3 Dye Buffer (Molecular Devices) using the protocol available from the manufacturer. Calcium mobilization was triggered using Δ^9-THC or 2-APB or elevated temperature buffer and measured using either FLIPR or FLEX STATION instruments.
Based on the predicted topology and primary sequence features of TRPV2, TRPV2 are divided into 3 major domains: 1) the amino-terminal intracellular domain; 2) the transmembrane domain; and 3) the carboxyl-terminal intracellular domain. For a chimera, each domain can be of rat (R) or human (H) origin. Three rat and human TRPV2 chimera were constructed and tested herein. RRH (SEQ ID NO:15) was a chimera comprising rat 1-392 aa, rat 393-646 aa, and human 647-764 aa. RHR (SEQ ID NO:16) was a chimera comprising rat 1-392, human 391-646, and rat 647-761. HRR (SEQ ID NO:17) was a chimera comprising human 1-390, rat 393-646, and rat 647-761.
DNA molecules encoding the three rat and human TRPV2 chimeras were obtained by fusion PCR. First, DNA molecules encoding the desired TRPV2 domains were amplified by PCR using the rat or human TRPV2 cDNA as the template with synthetic primer DNA containing in-frame sequence that overlapped with the other species domain to be linked. After PCR amplification and purification, DNA molecules encoding the desired TRPV2 domains from human and rat were combined and used as templates for fusion PCR with primer DNA matching the 5′ and 3′ end sequences of the coding sequence for the full length TRPV2 chimera. […]

human TRPV1 = biological target: T3, human TRPV1 (Homo sapiens, UniProt Q8NER1); assay: FLIPR assay in HEK293 cells expressing human TRPV1; assay type: cell-based; conditions: Δ^9-THC 240 μM, cannabinol 600 μM, others 120 μM
T3 construct: expressed in transfected cells; host or cells: HEK293
Procedure: A selected number of cannabinoids were also tested against HEK293 cells expressing human TRPV1 and canine TRPM8 in the FLIRP assay.

CB2 receptor = conditions: cited from earlier work
[3] = HEK293; read-out: % Response (activation of rat TRPV2)
[4] = 100 μM compound (anandamide 120 μM); normalized to 100 μM Δ^9-THC
[5] = FLIPR, rat TRPV2-expressing HEK293 cells; read-out: EC50 (activation of rat TRPV2)

`CCCC(C)(C)c1ccc2c(c1)OC(C)(C)[C@@H]1CC=C(C)C[C@@H]21` [JWH-133] showed an Emax at 100 µM (rat TRPV2; [3]) of 5%.
With 2-aminoethoxydiphenyl borate [2-APB] the “% Response (activation of rat TRPV2)” value (rat TRPV2; [4]) was 102%, the EC50 (rat TRPV2; [5]) was 8 µM and the “response of rat TRPV2 deletion mutants to the compound” value [1] was “still active”. The “response of chimera RHR to the compound” value [2] was “active”.
Work on `CCCCCCC(C)(C)c1cc(OC)c(C2C=C(CO)[C@H]3CC2C3(C)C)c(OC)c1` (stereo partly drawn) [HU-308] yielded an Emax at 100 µM (rat TRPV2; HEK293, read-out: % Response (activation of rat TRPV2)) of 10%.
In the case of `Cc1c(C(=O)c2cccc3ccccc23)c2cccc3c2n1C(CN1CCOCC1)CO3` (stereo not drawn) [WIN 55,212-3], the Emax at 100 µM (rat TRPV2; [3]) is reported as 7%.
For `CCCCCCC(C)(C)c1ccc(C2CC(O)CCC2CCCO)c(O)c1` (stereo not drawn) [CP55,940], the Emax at 100 µM (rat TRPV2; [3]) was 43%.
In the case of Nabilone, the “% Response (activation of rat TRPV2)” value (rat TRPV2; [4]) is reported as 59%.
`CCCn1c(C)c(C(=O)c2cccc3ccccc23)c2ccccc21` [JWH015] gave an Emax at 100 µM (rat TRPV2; [3]) of 14%.
With `CCCCCCC(C)(C)c1cc(O)c2c(c1)OC(C)(C)[C@H]1CC=C(CO)C[C@H]21` [HU-211] the Emax at 100 µM (rat TRPV2; [3]) was 31%.
For `CCCCC/C=C\C/C=C\C/C=C\C/C=C\CCCC(=O)Nc1ccc(O)cc1` [AM404], the “activation of TRPV1” value (human TRPV1) was “activated” and the Emax at 100 µM (rat TRPV2; [3]) was 6%.
In the case of `Cc1cc2cccc3c2n1C(CN1CCOCC1)[C@H](C(=O)c1cccc2ccccc12)O3` (stereo partly drawn) [WIN-55,212-2], the Emax at 100 µM (rat TRPV2; [3]) is reported as -2%.
For `C=C(C)[C@@H]1CCC(C)=CC1c1c(OC)cc(C)cc1OC` (stereo partly drawn) [O-1918], the Emax at 100 µM (rat TRPV2; [3]) was 6%.
Work on `C=C(C)[C@@H]1CCC(C)=C[C@H]1c1c(O)cc(O)cc1CCCCC` [CAY10429] yielded an Emax at 100 µM (rat TRPV2; [3]) of 0%.
With `C=C(C)[C@@H]1CCC(C)=C[C@H]1c1c(O)cc(C)cc1O` [O-1821] the EC50 (rat TRPV2; [5]) was about 20 µM and the Emax at 100 µM (rat TRPV2; [3]) was 95%.
In the case of `C=C(C)[C@@H]1CCC(C)=C[C@H]1C1=C(O)C(=O)C(CCCCC)=CC1=O` [HU-331], the EC50 (rat TRPV2; [5]) is reported as about 14 µM and the Emax at 100 µM (rat TRPV2; [3]) is reported as 47%.
For `CCCCCc1cc(O)c2c(c1)OC(C)(C)c1ccc(C)cc1-2` [Cannabinol], the “activation of TRPV1” value (human TRPV1) was “no significant activation”, the EC50 (rat TRPV2; [5]) was 77.7 µM and the Emax at 100 µM (rat TRPV2; [3]) was 68%.
With `CCCCC/C=C\C/C=C\C/C=C\C/C=C\CCCC(=O)NCCO` [Anandamide, N-arachidonoylethanolamine] the “activation of TRPV1” value (human TRPV1) was “activated”, the “activation effect on TRPV2” value (rat TRPV2) was “no or minimal activation effect” and the Emax at 100 µM (rat TRPV2; [3]) was 0%. For the same compound, the Ki (CB2 receptor) was 1.93 µM.
`CCCCCCCCCCCCCCCC(=O)NCCO` [PEA, palmitoylethanolamide] gave an Emax at 100 µM (rat TRPV2; [3]) of 5%.
With Cannabidiol the “% Response (activation of rat TRPV2)” value (rat TRPV2; [4]) was 163% and the EC50 (rat TRPV2; [5]) was 3.7 µM.
For `CCCCC/C=C\C/C=C\C/C=C\C/C=C\CCCC(=O)OC(CO)CO` [2-AG, 2-arachidonylglycerol], the “activation of TRPV1” value (human TRPV1) is given as “activated”, the Emax at 100 µM (rat TRPV2; [3]) is given as 30% and the Ki (CB2 receptor) is given as 1.4 µM.
